Legend:
[1] = system: Pyricularia oryzae Carvara KA301; type: in vivo; conditions: for C. V. (%) Fungicidal Activities against RCB at 10 ppm / C. V. (%) Fungicidal Activities against RCB at 10 ppm (TABLE 6): sprayed on Nakdong rice plant, control value from lesion area; for C. V. (%) RCB: 50 ppm, control value, rice blast
Botrytis cinerae = assay: Fungicidal activity against cucumber gray mold rot (CGM) disease; type: in vivo; conditions: 50 ppm, control value
Protocol: Botrytis cinerae, which was isolated from cucumber infected thereby, was inoculated on a PDA agar medium and cultured under a 12L/12D cycle at 25° C. for 15 days to form spore. The spores were scraped, filtered through a gauze and then suspended in potato dextrose liquid medium at a concentration of 1×10^6 spore/ml. The spore suspension was sprayed on a cucumber plant having one leaf. The cucumber plant was held in a humidified room at 20° C. for 3 days. L.A. on a leaf was measured to calculate an C.V.

Erysiphae graminis = assay: Fungicidal activity against barley powdery mildew (BPM) disease; type: in vivo; conditions: for C. V. (%), Fungicidal activities against TLB at 10 ppm: Table 9 (Test Example 6); for C. V. (%) BPM: 50 ppm, control value, barley powdery mildew
Protocol: Erysiphae graminis was subcultured on a wheat plant in a laboratory. 15 g of barley seeds was sowed in a pot (diameter 6.5 cm) and cultured in a greenhouse for 7 days to obtain a barley plant having only a primary leaf. The barley plant was inoculated with spores by shaking thereover another plant infected by BPM. The inoculated barley plant was cultured in an incubator maintained at a temperature of 22 to 24° C. and a relative humidity of 50% for 7 days to induce BPM. L.A. on the leaf was measured to calculate an C.V.

Phytophthora infestans = type: in vivo; conditions: 50 ppm; control value, tomato late blight
Puccinia recondita = assay: Fungicidal activity against wheat leaf rust (WLR) disease; type: in vivo; conditions: for C. V. (%), Fungicidal Activities against WLB at 10 ppm: Table 8 (Test Example 5); for C. V. (%) WLR: 50 ppm, control value, wheat leaf rust
Rhizoctonia solani AG-1 = assay: Fungicidal activity against rice sheath blight (RSB) disease; conditions: 50 ppm, control value

| SMILES | C. V. (%) Fungicidal Activities against RCB at 10 ppm [1] | C. V. (%) Fungicidal Activities against RCB at 10 ppm (TABLE 6) [1] | C. V. (%) RCB [1] | C. V. (%) CGM (Botrytis cinerae) | C. V. (%), Fungicidal activities against TLB at 10 ppm (Erysiphae graminis) | C. V. (%) BPM (Erysiphae graminis) | C. V. (%) TLB (Phytophthora infestans) | C. V. (%), Fungicidal Activities against WLB at 10 ppm (Puccinia recondita) | C. V. (%) WLR (Puccinia recondita) | C. V. (%) RSB (Rhizoctonia solani AG-1) |
| --- | --- | --- | --- | --- | --- | --- | --- | --- | --- | --- |
| COC=C(C(=O)OC)c1ccccc1COc1cccc(OC(F)=Cc2ccc(Cl)cc2)c1 [Compound 37] | 100% | 100% | 95% | 58% | 100% | 98% | 93% | 97% | 98% | 45% |
| CNC(=O)C(=COC)c1ccccc1COc1cccc(OC(F)=Cc2ccc(Cl)cc2)c1 [Compound 38] | – | – | 33% | 15% | – | 8% | 33% | – | 0% | 5% |
| CON=C(C(=O)OC)c1ccccc1COc1cccc(OC(F)=Cc2ccc(Cl)cc2)c1 [Compound 39] | – | – | 100% | 15% | 95% | 96% | 80% | – | 86% | 90% |
| COC(=O)C(=CSC)c1ccccc1COc1cccc(OC(F)=Cc2ccc(Cl)cc2)c1 [Compound 40] | – | – | 73% | 9% | – | 93% | 33% | – | 83% | 70% |
| CO/C=C(/C(=O)OC)c1ccccc1COc1cccc(OC(F)=C(c2ccccc2)C(F)(F)F)c1 [Compound 45, methyl (2E)-3-methoxy-2-{2′-{3′-(2′″-fluoro-1′″-trifluoromethylstyryl)-2′″-oxy}phenoxymethyl}phenyl-2-propenoate] | 90% | 90% | 90% | 0% | 100% | 100% | 0% | 100% | 100% | 94% |
| CNC(=O)/C(=C/OC)c1ccccc1COc1cccc(OC(F)=C(c2ccccc2)C(F)(F)F)c1 [Compound 46, (2E)-N-methyl-3-methoxy-2-{2′-{3″-(2′″-fluoro-1′″-trifluoromethylstyryl)-2′″-oxy}phenoxymethyl}phenyl-2-propenoamide] | – | – | 0% | 27% | – | 0% | 11% | – | 53% | 20% |
| CON=C(C(=O)OC)c1ccccc1COc1cccc(OC(F)=C(c2ccccc2)C(F)(F)F)c1 [Compound 47] | – | – | 96% | 26% | 98% | 98% | 64% | – | 86% | 90% |
| CNC(=O)C(=NOC)c1ccccc1COc1cccc(OC(F)=C(c2ccccc2)C(F)(F)F)c1 [Compound 48] | 100% | 100% | 97% | 28% | 100% | 98% | 70% | 100% | 100% | 45% |
| COC=C(C(=O)OC)c1ccccc1COc1cccc(OC(F)=C(c2cccc(C)c2)C(F)(F)F)c1 [Compound 49] | – | – | 95% | 41% | 100% | 100% | 0% | 95% | 100% | 50% |
| CNC(=O)C(=COC)c1ccccc1COc1cccc(OC(F)=C(c2cccc(C)c2)C(F)(F)F)c1 [Compound 50] | – | – | 0% | 5% | – | 0% | 33% | – | 0% | 25% |
| CON=C(C(=O)OC)c1ccccc1COc1cccc(OC(F)=C(c2cccc(C)c2)C(F)(F)F)c1 [Compound 51] | – | – | 41% | 0% | 98% | 100% | 3% | 90% | 100% | 60% |
| CNC(=O)C(=NOC)c1ccccc1COc1cccc(OC(F)=C(c2cccc(C)c2)C(F)(F)F)c1 [Compound 52] | 95% | 95% | 95% | 28% | 100% | 100% | 55% | 100% | 100% | 90% |
| COC=C(C(=O)OC)c1ccccc1COc1cccc(OC(F)=C(c2ccc(C)cc2)C(F)(F)F)c1 [Compound 53] | – | – | 100% | 55% | 96% | 100% | 0% | 99% | 100% | 50% |
| CNC(=O)C(=COC)c1ccccc1COc1cccc(OC(F)=C(c2ccc(C)cc2)C(F)(F)F)c1 [Compound 54] | – | – | 16% | 9% | – | 41% | 20% | – | 16% | 20% |
| CON=C(C(=O)OC)c1ccccc1COc1cccc(OC(F)=C(c2ccc(C)cc2)C(F)(F)F)c1 [Compound 55] | 94% | 94% | 100% | 0% | 97% | 100% | 85% | – | 100% | 30% |
| CNC(=O)C(=NOC)c1ccccc1COc1cccc(OC(F)=C(c2ccc(C)cc2)C(F)(F)F)c1 [Compound 56] | 92% | 92% | 97% | 0% | 100% | 100% | 48% | 100% | 100% | 65% |
| COC(=O)C(=CSC)c1ccccc1COc1cccc(OC(F)=C(c2ccc(C)cc2)C(F)(F)F)c1 [Compound 57] | – | – | 53% | 9% | – | 98% | 40% | – | 96% | 45% |
| CCc1ccc(C(=C(F)Oc2cccc(OCc3ccccc3C(=COC)C(=O)OC)c2)C(F)(F)F)cc1 [Compound 58] | – | – | 90% | 25% | 99% | 100% | 0% | 95% | 100% | 40% |
| CCc1ccc(C(=C(F)Oc2cccc(OCc3ccccc3C(=COC)C(=O)NC)c2)C(F)(F)F)cc1 [Compound 59] | – | – | 12% | 0% | – | 0% | 33% | – | 0% | 33% |
| CCc1ccc(C(=C(F)Oc2cccc(OCc3ccccc3C(=NOC)C(=O)OC)c2)C(F)(F)F)cc1 [Compound 60] | – | – | 0% | 0% | 97% | 100% | 18% | 93% | 98% | 40% |
| CCc1ccc(C(=C(F)Oc2cccc(OCc3ccccc3C(=NOC)C(=O)NC)c2)C(F)(F)F)cc1 [Compound 61] | 96% | 96% | 100% | 5% | 100% | 100% | 64% | 100% | 100% | 50% |
| CCCCc1ccc(C(=C(F)Oc2cccc(OCc3ccccc3C(=COC)C(=O)OC)c2)C(F)(F)F)cc1 [Compound 62] | – | – | 0% | 28% | – | 98% | 3% | – | 93% | 35% |
| COC=C(C(=O)OC)c1ccccc1COc1cccc(OC(F)=C(c2ccc(C)c(C)c2)C(F)(F)F)c1 [Compound 63] | – | – | 75% | 25% | 100% | 100% | 25% | – | 100% | 40% |

— US6444850B1, “Fungicidial compounds having a fluorovinyloxphyenyl moiety and process for the preparation thereof” (priority 1997, dated 2002)
